Tests used:
Assay type in all cases: physicochemical
[1] = X-ray powder diffraction (XRPD)
Description: 3. X-ray Powder Diffraction (XRPD)
Selected XRPD patterns were collected with an Inel XRG-3000 diffractometer. An incident beam of Cu Kα radiation was produced using a fine-focus tube and a parabolically graded multilayer mirror. Prior to the analysis, a silicon standard (NIST SRM 640c) was analyzed to verify the Si 111 peak position. A specimen of the sample was packed into a thin-walled glass capillary, and a beam-stop was used to minimize the background from air. Diffraction patterns were collected in transmission geometry using Windif v. 6.6 software and a curved position-sensitive Equinox detector with a […] of 120°.
Selected XRPD patterns were collected using a Bruker D8 DISCOVER diffractometer and Bruker's General Area-Detector Diffraction System (GADDS, v. 4.1.20). An incident microbeam of Cu Kα radiation was produced using a long, fine-focus tube (40 kV, 40 mA), a parabolically graded multilayer mirror, and a 0.5 mm double-pinhole collimator. Prior to the analysis, a silicon standard (NIST SRM 640c) was analyzed to verify the Si 111 peak position. […]
XRPD patterns for microplate samples were collected using a Bruker D8 DISCOVER diffractometer and Bruker's General Area-Detector Diffraction System (GADDS, v. 4.1.20). […] Prior to the analysis, a silicon standard (NIST SRM 640c) was analyzed to verify the Si 111 peak position. […]

[2] = Thermogravimetric analysis (TGA); conditions: sample no. 79
Description: 4. Thermogravimetric Analysis (TGA)
TG analyses were performed using a TA Instruments 2950 and Q5000 thermogravimetric analyzer. Temperature calibration was performed using nickel and Alumel™. Each sample was placed in an aluminum pan and inserted into the TG furnace. The furnace was heated under a nitrogen purge.
The method code for the thermogram (shown by the list of Figures in the “Brief Description of the Figures” section above) is an abbreviation for the start and end temperature as well as the heating rate; e.g., 25-350-10 means “from 25° C. to 350° C., at 10° C./min”.

[3] = Correlated thermogravimetric-infrared analysis (TG-IR); conditions: sample no. 79
Description: 5. Correlated Thermogravimetric—Infrared Analysis (TG-IR)
Thermogravimetric infrared (TG-IR) analysis was performed on a TA Instruments thermogravimetric (TG) analyzer model 2050 interfaced to a Magna-IR 560® Fourier transform infrared (FT-IR) spectrophotometer (Thermo Nicolet) equipped with an Ever-Glo mid/far IR source, a potassium bromide (KBr) beamsplitter, and a mercury cadmium telluride (MCT-A) detector. The FT-IR wavelength verification was performed using polystyrene, and the TG calibration standards were nickel and Alumel™. The sample was placed in a platinum sample pan, and the pan was inserted into the TG furnace. The TG instrument was started first, immediately followed by the FT-IR instrument. The TG instrument was operated under a flow of helium at 90 and 10 cc/min. for the purge and balance, respectively. The furnace was heated under […] at a rate of 20° C./minute to a final temperature of 250° C. IR spectra were collected approximately every 32 seconds for approximately 13 minutes. Each IR spectrum represents 32 co-added scans collected at a spectral resolution of 4 cm^−1. Volatiles were identified from a search of the High Resolution Nicolet Vapor Phase spectral library.

TGA sharp weight loss (onset) [2]: Sharp weight loss at ~254 °C (onset)
Structure (SMILES): Fc1cc(F)c2c(c1)C[C@@H](n1c(CCNCc3ccccc3)c[nH]c1=S)CO2 [Form B, 1-[(3R)-6,8-difluoro-3,4-dihydro-2H-1-benzopyran-3-yl]-1,3-dihydro-5-[2-[(phenylmethyl)amino]ethyl]-2H-imidazole-2-thione]
XRPD result ([1]; sample no. 48 (crystallized from tetrahydrofuran/ethyl acetate)): Crystalline consistent with Form B of compound 2 | XRPD result ([1]; sample no. 79 (organic vapor stress of amorphous material in ethyl acetate)): Crystalline consistent with Form B of compound 2 | TGA weight loss ([2]; between ~138° C. and ~190° C.): ~4.7 wt % loss between ~138 °C and ~190 °C | TG-IR (IR) identification of volatile [3]: (IR): Consistent with loss of ethyl acetate.

Source: patent publication US8865913B2, “Crystalline forms and processes for their preparation” (BIAL-Portela & C.A., S.A, priority 2010, dated 2014)
